Earlier results, collected in patent US8507466B2, “Oils enriched with diacylglycerols and phytosterol esters and unit dosage forms thereof for use in therapy” (Enzymotec Ltd., priority 2003, dated 2013).

Assays:
[1] = system: tumor cell growth (LNCaP and HT-29); conditions: compared to cholesterol
LDL = conditions: incubation of LDL with copper ion

## CC[C@H](CC[C@@H](C)[C@H]1CC[C@H]2[C@@H]3CC=C4C[C@@H](O)CC[C@]4(C)[C@H]3CC[C@]12C)C(C)C [beta-sitosterol]
[1]
  decrease in cell growth: 24%
  increase in apoptosis: 4 fold

## CCCCC/C=C\C/C=C\CCCCCCCC(=O)O [linoleic acid (LA), linoleic acid]
LDL
  elevation of LDL oxidation: 22%
